Where a chain is given by its changes, count along the chain named.
What was measured:
[1] = target: T1, intrinsic renin contained in the renatured human plasma (Homo sapiens, UniProt P00797); assay: Renin inhibition in vitro (angiotensin I production in renatured human plasma, RIA); type: biochemical; conditions: 60 minutes incubation, read-out: IC50 (concentration which inhibits renin activity by 50%)
T1 construct: intrinsic renin contained in the renatured plasma; tissue Ortho Bi-Level Plasma Renin Control; host or cells: human plasma (lyophilized, renatured in water)
T1 sequence (P00797 67-406): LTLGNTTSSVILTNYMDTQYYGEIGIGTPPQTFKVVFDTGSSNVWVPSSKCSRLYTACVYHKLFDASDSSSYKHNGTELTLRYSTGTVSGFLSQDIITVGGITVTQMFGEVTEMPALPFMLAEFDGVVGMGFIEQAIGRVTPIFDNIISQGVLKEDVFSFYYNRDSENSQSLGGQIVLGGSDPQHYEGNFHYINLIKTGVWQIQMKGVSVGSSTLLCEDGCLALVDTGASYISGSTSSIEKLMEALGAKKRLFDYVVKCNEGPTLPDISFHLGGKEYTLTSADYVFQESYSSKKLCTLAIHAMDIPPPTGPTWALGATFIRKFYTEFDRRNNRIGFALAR
Experimental: Commercially available lyophilized human plasma (Ortho, Bi-Level Plasma Renin Control) was renatured by dissolving in water. Angiotensinogen was allowed to react with intrinsic renin contained in the renatured plasma to generate angiotensin I (AI), which was quantitatively measured with radioimmunoassay (RIA). Thus, potency of the plasma renin was determined on the basis of the AI production. For this purpose, Renin RIA kit (RENIN' RIABEAD®) manufacture by Dinabott was used. All of the reagents necessary for the measurement of the AI production were available from the attachment of the kit, and the measurement was conducted according to the manufacturer's direction.
To the plasma (0.2 ml) were added all of the reagents, and the mixture was combined with either of sample solutions (0.002 ml) of various concentrations which had been prepared by dissolving a test compound in different amount of ethanol. Ethanol (0.002 ml) containing no test compound was used as a control solution. The amount of AI produced was measured after 60 minutes incubation. Renin inhibition potency of test compound was determined by comparing the amount of AI produced by a sample solution with that produced by a control solution.

[2] = target: T2, Plasma renin activity (Macaca fascicularis, UniProt Q6DLS0); assay: Renin inhibition in vivo (plasma renin activity after oral administration to hyperrenin monkeys); design: species or system Crab-eating monkeys (Cynomolgus monkeys); conditions: low sodium diet + furosemide; for Renin inhibition potency, 4 h: 4 h after administration; for Renin inhibition potency, 8 h: 8 h after administration
T2 construct: Two milliliters of blood was collected from femoral vein; from tissue; host or cells: plasma of cynomolgus monkeys made hyperreninemic by low sodium diet and furosemide
T2 sequence (Q6DLS0 67-406): T1 sequence (P00797 67-406) with T2A, I148L, S169A
Experimental: Crab-eating monkeys (Cynomolgus monkeys) (2.8-5.0 kg) were fed on low sodium diet (Na 7.15 mg/100 g feed) for six days, during which the monkeys intramuscularly received furosemide (2 mg/kg body weight) every other day from the second day of the experiment, in order to make the monkeys hyperrenin condition.
After seven days from the low sodium feeding, the monkeys were restrained on a monkey chair. Compounds to be tested are dissolved in 0.1 M citric acid/physiological saline or suspended in water with addition of β-cyclodextrin, and orally administered to the monkeys using a stomach probe (15 mg/kg body weight). […] For the blood collection, an injection syringe containing 30 μl of 6% aqueous EDTA·2Na solution was used. The collected blood was transferred into a test tube and centrifuged (3000 rpm, 10 minutes) at 4° C., and the resultant supernatant was used to determine the renin content. Plasma renin activity (AI(ng)/ml/h value) was measured using Radioimmunoassy kit commercially available from Dinabott Co. in the same manner as in the foregoing in vitro test. Renin inhibition potencies of the compounds tested, which were expressed as a percentage of renin activity relative to the activity before the administration, are listed in Table 12.

CC(C)(C)S(=O)(=O)CC(Cc1ccccc1)C(=O)NC(Cc1cscn1)C(=O)NC(CC1CCCCC1)C(O)CNS(C)(=O)=O (centres unmarked) [Example 69]
IC50 [1]: 0.53 nM

O=C(C[C@H](O)[C@H](CC1CCCCC1)NC(=O)[C@H](Cc1c[nH]cn1)NC(=O)[C@@H](CC(=O)N1CCOCC1)Cc1cccc2ccccc12)c1ccncc1 [Example 42]
IC50 [1]: 13 nM

O=C(C[C@H](O)[C@H](CC1CCCCC1)NC(=O)[C@H](Cc1c[nH]cn1)NC(=O)[C@@H](CC(=O)N1CCOCC1)Cc1cccc2ccccc12)c1ccccc1 [Example 40]
IC50 [1]: 18.1 nM
Renin inhibition potency, Max ([2]; 15 mg/kg orally): 44%
Renin inhibition potency, Mean ([2]; 15 mg/kg orally): 30%
Renin inhibition potency, 4 h ([2]; 15 mg/kg orally): 44%

COc1ccc(C(=O)C[C@H](O)[C@H](CC2CCCCC2)NC(=O)[C@H](Cc2c[nH]cn2)NC(=O)[C@H](Cc2ccccc2)CS(=O)(=O)C(C)(C)C)cc1 [Example 22]
IC50 [1]: 39.2 nM

CCS(=O)(=O)C[C@@H](Cc1ccccc1)C(=O)N[C@@H](Cc1c[nH]cn1)C(=O)N[C@@H](CC1CCCCC1)[C@@H](O)CC(=O)c1ccccc1 [Example 38]
IC50 [1]: 39.2 nM

CC(C)S(=O)(=O)C[C@@H](Cc1ccccc1)C(=O)N[C@@H](Cc1c[nH]cn1)C(=O)N[C@@H](CC1CCCCC1)[C@@H](O)CC(=O)c1ccccc1 [Example 37]
IC50 [1]: 14.5 nM

CC(C)(C)S(=O)(=O)C[C@@H](Cc1ccccc1)C(=O)N[C@@H](Cc1cscn1)C(=O)N[C@@H](CC1CCCCC1)[C@@H](O)CNS(=O)(=O)c1ccccc1 [Example 62]
IC50 [1]: 1.24 nM

CC(C)OC(=O)C(O)C(CC1CCCCC1)NC(=O)[C@H](Cc1cnc[nH]1)NC(=O)[C@@H](CC(=O)N1CCOCC1)Cc1cccc2ccccc12 (some centres unmarked) [KRI-1314, reference compound]
IC50 [1]: 21.3 nM

CC(C)(C)S(=O)(=O)C[C@@H](Cc1ccccc1)C(=O)N[C@@H](Cc1c[nH]cn1)C(=O)N[C@@H](CC1CCCCC1)[C@@H](O)CC(=O)c1ccncc1 [Example 1, 3-t-Butylsulfonyl-2(S)-phenylmethylpropionyl-His-1(S)-cyclohexylmethyl-2(S)-hydroxy-4-oxo-4-(4-pyridyl)butylamide]
IC50 [1]: 6.09 nM
Renin inhibition potency, Max ([2]; 30 mg/kg orally): 33%
Renin inhibition potency, Mean ([2]; 30 mg/kg orally): 22%
Renin inhibition potency, 4 h ([2]; 30 mg/kg orally): 22%

O=C(C[C@H](O)[C@H](CC1CCCCC1)NC(=O)[C@H](Cc1cscn1)NC(=O)[C@@H](CC(=O)N1CCOCC1)Cc1cccc2ccccc12)NCCN1CCOCC1 [ES-6864, reference compound]
IC50 [1]: 3.75 nM

CN(C)S(=O)(=O)NCC(O)C(CC1CCCCC1)NC(=O)C(Cc1cscn1)NC(=O)C(Cc1ccccc1)NS(=O)(=O)N1CCOCC1 (centres unmarked) [Example 56]
IC50 [1]: 0.7 nM
Renin inhibition potency, Max ([2]; 15 mg/kg orally): 93%
Renin inhibition potency, Mean ([2]; 15 mg/kg orally): 72%
Renin inhibition potency, 4 h ([2]; 15 mg/kg orally): 82%
Renin inhibition potency, 8 h ([2]; 15 mg/kg orally): 85%

O=C(N[C@@H](CC1CCCCC1)[C@@H](O)CNS(=O)(=O)N1CCOCC1)[C@H](Cc1cscn1)NC(=O)[C@H](Cc1ccccc1)NS(=O)(=O)N1CCOCC1 [Example 53]
IC50 [1]: 0.36 nM
Renin inhibition potency, Max ([2]; 15 mg/kg orally): 96%
Renin inhibition potency, Mean ([2]; 15 mg/kg orally): 85%
Renin inhibition potency, 4 h ([2]; 15 mg/kg orally): 94%
Renin inhibition potency, 8 h ([2]; 15 mg/kg orally): 73%
